This passage reports ΔTm, IC50 and Kd results from patent publication US20250188110A1, “SPECIFIC SMALL MOLECULE INHIBITORS THAT BLOCK KMT9 METHYLTRANSFERASE ACTIVITY AND FUNCTION” (ALBERT-LUDWIGS-UNIVERSITÄT FREIBURG, priority 2021, published 2025).

Where two headings read alike, the source gives them in different places.

Test [1] concerns the target T1, KMT9 (Homo sapiens, UniProt Q9Y5N5).
T1 sequence (Q9Y5N5 1-214): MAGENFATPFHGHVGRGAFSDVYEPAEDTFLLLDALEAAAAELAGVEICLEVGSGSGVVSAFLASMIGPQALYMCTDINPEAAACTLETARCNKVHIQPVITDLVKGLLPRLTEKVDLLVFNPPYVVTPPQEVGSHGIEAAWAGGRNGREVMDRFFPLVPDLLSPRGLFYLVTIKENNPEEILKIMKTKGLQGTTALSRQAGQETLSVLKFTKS
T1 sequence (Q9UI30 1-120 isoform Q9UI30-2 partner): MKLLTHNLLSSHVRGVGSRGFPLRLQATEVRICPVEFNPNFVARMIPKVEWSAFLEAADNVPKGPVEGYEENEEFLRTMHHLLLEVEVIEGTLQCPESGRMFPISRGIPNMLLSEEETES
Nature of the test: KMT9 thermal shift assay (SyproOrange). Type of test: binding. The procedure, abridged:
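ΔTm versus DMSO-only control is reported in bins (>20 K, 15–20 K, 10–15 K, ≤10 K), using Tm from Boltzmann sigmoidal fits of SyproOrange melt curves. KMT9 with compound in pH 8.5 BTP buffer containing MgCl2 and DTT was preincubated at 25° C, then ramped 1° C per 15 s up to 95° C.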

The target in test [2] is T1, KMT9. Briefly: KMT9 methyltransferase inhibition assay, MTaseGlo luminescence (from entry 155). Particulars: 100 nM KMT9, 5 μM ETF1, 1 μM SAM. Type of test: biochemical. Summed up:
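KMT9 (100 nM final) pre-incubated with inhibitor for 15 min at room temperature, then reacted with 5 μM ETF1 and 1 μM SAM for 2 h at 30° C. at 2% DMSO final. MTaseGlo luminescence read after 60 min detection; IC50 reported in four potency bins.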

Test [3] concerns the target T1, KMT9. Nature of the test: Microscale thermophoresis (MST) KMT9 binding. The procedure, abridged: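 Kd from microscale thermophoresis: compound series against 20 nM His-KMT9 labelled via RED-Tris-NTA, buffer 25 mM HEPES (pH 7.5)/100 mM NaCl/1 mM DTT/0.05% Tween, 40% MST power, 100% LED. Reported as classes: A ≤10 nM, B >10–100 nM, C >100–1000 nM, D >1000 nM.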
A general note: In MST a laser heats a spot of the sample, and binding alters the fluorescence response.

The mark [4] stands for this setting: 500 µM compound, 2 μM KMT9, read-out: Thermal shift (ΔTm).
The mark [5] stands for this setting: MTaseGlo procedure (entries from 155), read-out: Inhibition (IC50).
[6] abbreviates: His-tag labelled KMT9 20 nM, read-out: MST (Kd).
[7] abbreviates: ΔTm class, 500 uM compound, 2 μM KMT9, read-out: Thermal shift.
The mark [8] stands for this setting: IC50 class, MTaseGlo procedure (entries from 155 on), read-out: Inhibition.
[9] abbreviates: His-tag labelled KMT9 20 nM, Kd class, read-out: MST.

Regarding `Nc1nc(Cl)nc2c1c(-c1ccn(S(=O)(=O)c3ccccc3)n1)cn2[C@@H]1C[C@H](C2CCN(CCc3ccccc3)CC2)[C@@H](O)[C@H]1O` [Compound 519, (1R,2S,3R,5R)-3-{4-amino-5-[1-(benzenesulfonyl)pyrazol-3-yl]-2-chloropyrrolo[2,3-d]pyrimidin-7-yl}-5-[1-(2-phenylethyl)piperidin-4-yl]cyclopentane-1,2-diol], on KMT9 [1] (setting [4]), the ΔTm at 500 µM is above 20 °C. Further, the IC50 at KMT9 [2] (setting [5]) was 100 to 1000 nM. Also, the Kd at KMT9 [3] (setting [6]) is at most 10 nM.
`Nc1nc(Cl)nc2c1c(-c1nc(Cc3ccccc3)cs1)cn2[C@@H]1C[C@H](C2CCN(C[C@H]3CCOC3)CC2)[C@@H](O)[C@H]1O` [Compound 521R, (1R,2S,3R,5R)-3-(4-amino-5-(4-benzylthiazol-2-yl)-2-chloro-7H-pyrrolo[2,3-d]pyrimidin-7-yl)-5-(1-(((R)-tetrahydrofuran-3-yl)methyl)piperidin-4-yl)cyclopentane-1,2-diol]: the ΔTm at 500 µM on KMT9 [1] (setting [4]) lay in the range of 15 to 20 °C. The IC50 on KMT9 [2] (setting [5]) was in the range of 1000 to 10000 nM. The Kd at KMT9 [3] (setting [6]) was 10 to 100 nM.
For `O[C@@H]1[C@H](O)[C@@H](C2CCNCC2)C[C@H]1n1cc(-c2ccn(Cc3ccccc3)n2)c2cnc(Cl)nc21` [Compound 522, (1R,2S,3R,5R)-3-(5-(1-benzyl-1H-pyrazol-3-yl)-2-chloro-7H-pyrrolo[2,3-d]pyrimidin-7-yl)-5-(piperidin-4-yl)cyclopentane-1,2-diol], the ΔTm at 500 µM on KMT9 [1] (ΔTm, 500 µM compound, 2 μM KMT9, 5X SO, read-out: Thermal shift) fell in the range of 15 to 20 °C. Also, the IC50 at KMT9 [2] (from entry 155: MTaseGlo assay, read-out: Inhibition) lay within 1000 to 10000 nM. Further, the Kd at KMT9 [3] (microscale thermophoresis, His-tag labelled KMT9 (20 nM), read-out: MST) fell in the range of 100 to 1000 nM.
`Nc1nc(Cl)nc2c1c(-c1nc(Cc3ccccc3)cs1)cn2[C@@H]1C[C@H](C2CCN(CC3CCCC3)CC2)[C@@H](O)[C@H]1O` [Compound 523, (1R,2S,3R,5R)-3-(4-amino-5-(4-benzylthiazol-2-yl)-2-chloro-7H-pyrrolo[2,3-d]pyrimidin-7-yl)-5-(1-(cyclopentylmethyl)piperidin-4-yl)cyclopentane-1,2-diol]: at KMT9 [1] (setting [4]), the ΔTm at 500 µM was in the range of 10 to 15 °C. Further, the IC50 at KMT9 [2] (setting [5]) was in the range of 1000 to 10000 nM. For the same compound, the Kd on KMT9 [3] (setting [6]) is 100 to 1000 nM.
The like results for `Nc1nc(Cl)nc2c1c(-c1nc(Cc3ccccc3)cs1)cn2[C@@H]1C[C@H](C2CCN(Cc3ccn[nH]3)CC2)[C@@H](O)[C@H]1O` [Compound 524, (1R,2S,3R,5R)-3-[4-amino-5-(4-benzyl-1,3-thiazol-2-yl)-2-chloropyrrolo[2,3-d]pyrimidin-7-yl]-5-[1-(2H-pyrazol-3-ylmethyl)piperidin-4-yl]cyclopentane-1,2-diol] were, in that order, 15 to 20 °C, 100 to 1000 nM and 10 to 100 nM.
`Nc1nc(Cl)nc2c1c(-c1nc(Cc3ccccc3)cs1)cn2[C@@H]1C[C@H](C2CCN(Cc3ccco3)CC2)[C@@H](O)[C@H]1O` [Compound 525, (1R,2S,3R,5R)-3-(4-amino-5-(4-benzylthiazol-2-yl)-2-chloro-7H-pyrrolo[2,3-d]pyrimidin-7-yl)-5-(1-(furan-2-ylmethyl)piperidin-4-yl)cyclopentane-1,2-diol]: the ΔTm at 500 µM on KMT9 [1] (setting [4]) was 15 to 20 °C. In addition, the IC50 at KMT9 [2] (setting [5]) fell in the range of 1000 to 10000 nM. Moreover, on KMT9 [3] (setting [6]), the Kd is at most 10 nM.
The like results for `Nc1nc(Cl)nc2c1c(-c1nc(Cc3ccccc3)cs1)cn2[C@@H]1C[C@H](C2CCN(Cc3cccs3)CC2)[C@@H](O)[C@H]1O` [Compound 526, (1R,2S,3R,5R)-3-(4-amino-5-(4-benzylthiazol-2-yl)-2-chloro-7H-pyrrolo[2,3-d]pyrimidin-7-yl)-5-(1-(thiophen-2-ylmethyl)piperidin-4-yl)cyclopentane-1,2-diol] were, in that order, 15 to 20 °C, 100 to 1000 nM and at most 10 nM.
The matching figures for `Nc1nc(Cl)nc2c1c(-c1nc(Cc3ccccc3)cs1)cn2[C@@H]1C[C@H](C2CCN(Cc3ccncc3)CC2)[C@@H](O)[C@H]1O` [Compound 527, (1R,2S,3R,5R)-3-(4-amino-5-(4-benzylthiazol-2-yl)-2-chloro-7H-pyrrolo[2,3-d]pyrimidin-7-yl)-5-(1-(pyridin-4-ylmethyl)piperidin-4-yl)cyclopentane-1,2-diol]: 10 to 15 °C, 1000 to 10000 nM and 10 to 100 nM.
Turning to `Nc1nc(Cl)nc2c1c(Br)cn2[C@@H]1C[C@H](CN(CCCNCCc2ccc(F)cc2)c2cn[nH]c2)[C@@H](O)[C@H]1O` [Compound 538, (1R,2S,3R,5R)-3-(4-amino-5-bromo-2-chloro-7H-pyrrolo[2,3-d]pyrimidin-7-yl)-5-(((3-((4-fluorophenethyl)amino)propyl)(1H-pyrazol-4-yl)amino)methyl)cyclopentane-1,2-diol], the ΔTm at 500 µM at KMT9 [1] (setting [4]) is 15 to 20 °C. On KMT9 [2] (setting [5]), the IC50 fell in the range of 100 to 1000 nM. Besides, the Kd on KMT9 [3] (setting [6]) is at most 10 nM.
For the compound `CNc1nc(Cl)nc2c1ccn2[C@@H]1C[C@H](CNCCCNCCc2cccc(Oc3ccccc3)c2)[C@@H](O)[C@H]1O` [Compound 555, (1R,2S,3R,5R)-3-(2-chloro-4-(methylamino)-7H-pyrrolo[2,3-d]pyrimidin-7-yl)-5-(((3-((3-phenoxyphenethyl)amino)propyl)amino)methyl)cyclopentane-1,2-diol], the ΔTm at 500 µM at KMT9 [1] (setting [4]) fell in the range of 15 to 20 °C. Further, the IC50 at KMT9 [2] (setting [5]) lay in the range of 100 to 1000 nM. On KMT9 [3] (setting [6]), the Kd lay in the range of 10 to 100 nM.
On to `Nc1nc(Cl)nc2c1c(-c1ccccc1)cn2[C@@H]1C[C@H](CNCCCNCCc2cccc(Oc3ccccc3)c2)[C@@H](O)[C@H]1O` [Compound 564, (1R,2S,3R,5R)-3-(4-amino-2-chloro-5-phenyl-7//pyrrolo[2,3-d]pyrimidin-7-yl)-5-(((3-((3-phenoxyphenethyl)amino)propyl)amino)methyl)cyclopentane-1,2-diol], for which, on KMT9 [1] (setting [4]), the ΔTm at 500 µM was above 20 °C. In addition, the IC50 at KMT9 [2] (setting [5]) fell in the range of 1000 to 10000 nM. For the same compound, the Kd at KMT9 [3] (setting [6]) is 10 to 100 nM.
Regarding `Nc1nc(Cl)nc2c1c(-c1ccccc1)cn2[C@@H]1C[C@H](CNCCCNCCc2ccc(F)cc2)[C@@H](O)[C@H]1O` [Compound 566, (1R,2S,3R,5R)-3-(4-amino-2-chloro-5-phenyl-7/pyrrolo[2,3-d]pyrimidin-7-yl)-5-(( (3-((4-fluorophenethyl)amino)propyl)amino)methyl)cyclopentane-1,2-diol], the ΔTm at 500 µM at KMT9 [1] (setting [7]) was above 20 °C. For the same compound, the IC50 on KMT9 [2] (setting [8]) lay within 100 to 1000 nM. Also, the Kd on KMT9 [3] (setting [9]) is at most 10 nM.
The matching figures for `CCN(CCCNCCc1ccc(F)cc1)C[C@H]1C[C@@H](n2cc(-c3ccccc3)c3c(N)nc(Cl)nc32)[C@H](O)[C@@H]1O` [Compound 568, (1R,2S,3R,5R)-3-(4-amino-2-chloro-5-phenyl-7//-pyrrolo[2,3-d]pyrimidin-7-yl)-5-((ethyl(3-((4-fluorophenethyl)amino)propyl)amino)methyl)cyclopentane-1,2-diol]: above 20 °C, 100 to 1000 nM and 10 to 100 nM.
In the case of `CN(CCCNCCc1ccc(F)cc1)C[C@H]1C[C@@H](n2cc(-c3ccccc3)c3c(N)nc(Cl)nc32)[C@H](O)[C@@H]1O` [Compound 575, (1R,2S,3R,5R)-3-(4-amino-2-chloro-5-phenyl-7H-pyrrolo[2,3-d]pyrimidin-7-yl)-5-(((3-((4-fluorophenethyl)amino)propyl)(methyl)amino)methyl)cyclopentane-1,2-diol], the ΔTm at 500 µM on KMT9 [1] (setting [4]) is 15 to 20 °C. For the same compound, on KMT9 [2] (setting [5]), the IC50 was 100 to 1000 nM. Moreover, at KMT9 [3] (setting [6]), the Kd is at most 10 nM.
Turning to `Nc1nc(Cl)nc2c1ccn2[C@@H]1C[C@H](c2cn[nH]c2)[C@@H](O)[C@H]1O` [Compound 582, (1R,2S,3R,5R)-3-{4-Amino-2-chloropyrrolo[2,3-d]pyrimidin-7-yl}-5-(1H-pyrazol-4-yl)cyclopentane-1,2-diol], the ΔTm at 500 µM on KMT9 [1] (setting [4]) is at most 10 °C. Further, at KMT9 [2] (setting [5]), the IC50 fell in the range of 1000 to 10000 nM. For the same compound, the Kd at KMT9 [3] (setting [6]) is 100 to 1000 nM.
The matching figures for `CNc1nc(Cl)nc2c1ccn2[C@@H]1C[C@H](c2cn[nH]c2)[C@@H](O)[C@H]1O` [Compound 583, (1R,2S,3R,5R)-3-[2-chloro-4-(methylamino)pyrrolo[2,3-d]pyrimidin-7-yl]-5-(1H-pyrazol-4-yl)cyclopentane-1,2-diol]: at most 10 °C, above 10000 nM and above 1000 nM.
The matching figures for `Nc1nc(Cl)nc2c1ccn2[C@@H]1C[C@H](c2cnn(CCc3ccccc3)c2)[C@@H](O)[C@H]1O` [Compound 584, (1R,2S,3R,5R)-3-(4-Amino-2-chloro-7H-pyrrolo[2,3-d]pyrimidin-7-yl)-5-(1-phenethyl-1H-pyrazol-4-yl)cyclopentane-1,2-diol]: at most 10 °C, above 10000 nM and above 1000 nM.
